Source: patent US20210139517A1, “BICYCLIC HETEROARYL COMPOUNDS AND USES THEREOF” (Revolution Medicines, Inc., priority 2019, published 2021)

Assays:
[1] = test system: SOS1 function in cells: cellular pERK in PC-9 cells (EGFR Ex19Del); test: pERK potency assay in PC-9 cells (AlphaLISA SureFire Ultra p-ERK1/2); type: cell-based; conditions: Homo sapiens, PC-9, 1 h, 1 hour incubation
Method: The purpose of this assay is tomeasure the ability of test compounds to inhibit SOS1 function in cells. SOS1 activates RAS proteins by catalyzing the conversion of RAS-GDP to RAS-GTP in response to receptor tyrosine kinase activation. […] The procedure described below measures the level of cellular pERK in response to test compounds in PC-9 cells (EGFR Ex19Del).
PC-9 cells were grown and maintained using media and procedures recommended by the ATCC. On the day prior to compound addition, cells were plated in 384-well cell culture plates (40 μL/well) and grown overnight in a 37° C., 5% CO2 incubator. Test compounds were prepared in 10, 3-fold dilutions in DMSO, with a top concentration of 10 mM. On the day of the assay, 40 nL of test compound was added to each well of cell culture plate using an Echo550 liquid handler (LabCyte). Concentrations of test compound were tested in duplicate with highest test concentration being 10 μM. After compound addition, cells were incubated for 1 hour at 37° C., 5% CO2. Following incubation, culture medium was removed and cells were washed once with phosphate buffered saline.
Cellular pERK level was determined using the AlphaLISA SureFire Ultra p-ERK1/2 Assay Kit (PerkinElmer). Cells were lysed in 25 μL lysis buffer, with shaking at 600 RPM at room temperature for 15 minutes. Lysate (10 μL) was transferred to a 384-well Opti-plate (PerkinElmer) and 5 μL acceptor mix was added. The plate was centrifuged at 1000 RPM for 1 minute, and incubated in the dark for 2 hours. Following this incubation, 5 μL of donor mix was added, the plate was sealed and centrifuged at 1000 RPM for 1 minute, and the mixture was incubated for 2 hours at room temperature. Signal was read on an Envision plate reader (PerkinElmer) using standard AlphaLISA settings. Analysis of raw data was carried out in Excel (Microsoft) and Prism (GraphPad). Signal was plotted vs. the decadal logarithm of compound concentration, and IC50 was determined by fitting a 4-parameter sigmoidal concentration response model.

[2] = molecular target: T1, SOS1 catalytic domain (residues 564-1049) (Homo sapiens, UniProt Q07889); test: SOS1 SPR binding affinity assay (Biacore 8K); conditions: avi-tagged SOS1 catalytic domain immobilized on streptavidin chip; equilibrium 1:1 binding fit; read-out: SOS1 SPR Equilibrium Kd
T1 sequence (Q07889 564-1049): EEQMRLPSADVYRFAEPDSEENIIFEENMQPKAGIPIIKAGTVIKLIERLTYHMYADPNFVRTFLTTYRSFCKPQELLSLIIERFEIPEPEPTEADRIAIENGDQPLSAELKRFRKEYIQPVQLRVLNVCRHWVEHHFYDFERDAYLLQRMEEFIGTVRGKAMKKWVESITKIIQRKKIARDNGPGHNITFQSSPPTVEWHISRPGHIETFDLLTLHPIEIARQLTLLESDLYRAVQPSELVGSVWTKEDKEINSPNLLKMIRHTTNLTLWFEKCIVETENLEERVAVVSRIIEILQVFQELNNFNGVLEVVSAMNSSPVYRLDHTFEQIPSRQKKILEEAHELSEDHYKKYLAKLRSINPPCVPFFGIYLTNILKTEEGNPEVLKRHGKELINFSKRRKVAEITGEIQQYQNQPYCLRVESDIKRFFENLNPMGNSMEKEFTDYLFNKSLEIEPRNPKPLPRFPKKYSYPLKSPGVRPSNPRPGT

[3] = molecular target: T2, SOS1 nucleotide exchange of wild-type KRAS (SOS1 catalytic domain residues 564-1049; KRAS residue 1-169) (Homo sapiens, UniProt Q07889); test: Inhibition of SOS1 nucleotide exchange activity of KRAS (TR-FRET); type: biochemical; conditions: SOS1 nucleotide exchange of wild-type KRAS; three replicates; four-parameter logistic fit; read-out: TR-FRET IC50
T2 sequence (Q07889 564-1049): T1 sequence (Q07889 564-1049)

SMILES	IC50 [1] [nM]	Kd [2] [nM]	IC50 [3] [nM]
C[C@@H](Nc1ncnc2c1cc(N1CCOCC1)c(=O)n2C)c1cc(N)cc(C(F)(F)F)c1 [Example 12, 4-{[(1R)-1-[3-amino-5-(trifluoromethyl)phenyl]ethyl]amino}-8-methyl-6-(morpholin-4-yl)-7H,8H-pyrido[2,3-d]pyrimidin-7-one]	101	7.94	13.6
C[C@@H](Nc1ncnc2c1cc(N1CCOCC1)c(=O)n2C)c1cccc(C(F)(F)F)c1 [Example 13, 8-methyl-6-(morpholin-4-yl)-4-{[(1R)-1-[3-(trifluoromethyl)phenyl]-ethyl]amino}-7H,8H-pyrido[2,3-d]pyrimidin-7-one]	321	28.3	29.4
CC(=O)N1CCC(c2cc3c(N[C@H](C)c4cc(C(F)(F)F)cc(N)c4F)ncnc3n(C)c2=O)CC1 [Example 15, 6-(1-acetyl-4-piperidyl)-4-[[(1R)-1-[3-amino-2-fluoro-5-(trifluoromethyl)phenyl]ethyl]amino]-8-methyl-pyrido[2,3-d]pyrimidin-7-one]	391	168	90.4
Cc1nc(N[C@H](C)c2cccc(C(F)F)c2F)c2cc(C3CCN(C)CC3F)c(=O)n(C)c2n1 (stereo partly drawn) [Example 18, 4-[[(1R)-1-[3-(difluoromethyl)-2-fluoro-phenyl]ethyl]amino]-6-(3-fluoro-1-methyl-4-piperidyl)-2,8-dimethyl-pyrido[2,3-d]pyrimidin-7-one]	190	16	5.79
CC(=O)N1CCC(c2cc3c(N[C@H](C)c4cc(N)cc(C(F)(F)F)c4F)ncnc3n(C)c2=O)CC1 [Example 19, 6-(1-acetyl-4-piperidyl)-4-[[(1R)-1-[5-amino-2-fluoro-3-(trifluoromethyl)phenyl]ethyl]amino]-8-methyl-pyrido[2,3-d]pyrimidin-7-one]	49.2	32.4	12.3
C[C@@H](Nc1ncnc2c1cc(-c1ccnnc1)c(=O)n2C)c1cccc(C(F)F)c1F [Example 21, (R)-4-((1-(3-(difluoromethyl)-2-fluorophenyl)ethyl)amino)-8-methyl-6-(pyridazin-4-yl)pyrido[2,3-d]pyrimidin-7(8H)-one]	136	32.7	18
Cc1nc(N[C@H](C)c2cccc(C(F)F)c2F)c2cc(C(=O)N3CCOCC3)c(=O)n(C)c2n1 [Example 26, 4-{[(1R)-1-[3-(difluoromethyl)-2-fluorophenyl]ethyl]amino}-2,8-dimethyl-6-(morpholine-4-carbonyl)-7H,8H-pyrido[2,3-d]pyrimidin-7-one]	–	115	70.2
C[C@@H](Nc1ncnc2c1cc(C(=O)N1CC3CCC1CO3)c(=O)n2C)c1cccc(C(F)F)c1F (some centres unmarked) [Example 26-18]	–	150	78.6
C[C@@H](Nc1ncnc2c1cc(C(=O)N1CC3CCC(C1)O3)c(=O)n2C)c1cccc(C(F)F)c1F [Example 26-19]	–	148	65.4
Cc1nc(N[C@H](C)c2cccc(C(F)F)c2F)c2cc(CN3CCOCC3)c(=O)n(C)c2n1 [Example 27, 4-{[(1R)-1-[3-(difluoromethyl)-2-fluorophenyl]ethyl]amino}-2,8-dimethyl-6-[(morpholin-4-yl)meth-yl]-7H,8H-pyrido[2,3-d]pyrimidin-7-one]	–	550	192
C[C@@H](Nc1ncnc2c1cc(C1(O)CCS(=O)(=O)CC1)c(=O)n2C)c1cccc(C(F)F)c1F [Example 28, 4-(4-{[(1R)-1-[3-(difluoromethyl)-2-fluorophenyl]-ethyl]amino}-8-methyl-7-oxo-7H,8H-pyrido[2,3-d]pyrimidin-6-yl)-4-hydroxy-1λ^6-thiane-1,1-dione]	–	45.1	20.6
C[C@@H](Nc1ncnc2c1cc(C1(F)CCS(=O)(=O)CC1)c(=O)n2C)c1cccc(C(F)F)c1F [Example 29, 4-(4-{[(1R)-1-[3-(difluoromethyl)-2-fluorophenyl]ethyl]amino}-8-methyl-7-oxo-7H,8H-pyrido[2,3-d]-pyrimidin-6-yl)-4-fluoro-1λ^6-thiane-1,1-dione]	–	36	50.1
C[C@@H](Nc1ncnc2c1cc(C1(N)CCOCC1)c(=O)n2C)c1cccc(C(F)F)c1F [Example 31, 6-(4-aminooxan-4-yl)-4-{[(1R)-1-[3-(difluoromethyl)-2-fluorophenyl]ethyl]amino}-8-methyl-7H,8H-pyrido-[2,3-d]pyrimidin-7-one]	–	42.8	31.5
CO[C@]1(c2cc3c(N[C@H](C)c4cccc(C(F)F)c4F)ncnc3n(C)c2=O)CCN(C(C)=O)C1 [Example 32-19]	–	6.92	8.82
C[C@@H](Nc1ncnc2c1cc(C1CC3(C1)CS(=O)(=O)C3)c(=O)n2C)c1cccc(C(F)F)c1F [Example 33, 6-(4-{[(1R)-1-[3-(difluoromethyl)-2-fluorophenyl]ethyl]amino}-8-methyl-7-oxo-7H,8H-pyrido[2,3-d]pyrimi-din-6-yl)-2λ^6-thiaspiro[3.3]heptane-2,2-dione]	–	33.4	29.5
C[C@@H](Nc1ncnc2c1cc(C1CCNCC1O)c(=O)n2C)c1cccc(C(F)F)c1F (stereo partly drawn) [Example 34, 4-(((R)-1-(3-(difluoromethyl)-2-fluorophenyl)ethyl)amino)-6-(3-hydroxypiperidin-4-yl)-8-methylpyrido[2,3-d]pyrimidin-7(8H)-one]	–	72.9	62.7
